Laboratory results from US8338465B2, “Cyclic carboxylic acid rhodanine derivatives for the treatment and prevention of tuberculosis” (priority 2006, dated 2012).
Read-outs that look alike come from different tables or passages of the source.

Target: T1, dihydrolipoamide acyltransferase (DlaT) (Mycobacterium tuberculosis, UniProt P9WIS7)
T1 sequence (P9WIS7 1-553): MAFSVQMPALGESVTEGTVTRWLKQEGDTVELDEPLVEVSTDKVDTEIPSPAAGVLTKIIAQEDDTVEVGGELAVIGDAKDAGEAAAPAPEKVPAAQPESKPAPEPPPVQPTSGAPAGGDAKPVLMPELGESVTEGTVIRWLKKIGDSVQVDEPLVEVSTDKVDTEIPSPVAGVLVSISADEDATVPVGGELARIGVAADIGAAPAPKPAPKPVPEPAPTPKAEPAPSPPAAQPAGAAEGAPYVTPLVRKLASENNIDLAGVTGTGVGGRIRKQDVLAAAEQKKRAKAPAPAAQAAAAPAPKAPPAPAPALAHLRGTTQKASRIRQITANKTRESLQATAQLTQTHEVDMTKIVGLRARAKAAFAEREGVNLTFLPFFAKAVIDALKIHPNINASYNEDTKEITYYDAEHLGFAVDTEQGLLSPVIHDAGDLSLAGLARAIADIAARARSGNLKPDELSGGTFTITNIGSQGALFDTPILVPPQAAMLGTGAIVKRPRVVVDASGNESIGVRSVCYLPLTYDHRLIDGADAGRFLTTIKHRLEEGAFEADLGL
Assay: DlaT inhibition (Dlat IC50); DTNB peroxidase assay with Lpd, DlaT and AhpD
Format: biochemical

[1] = Table 1, Compounds A1 to A294, read-out: Dlat IC50 category

Row | SMILES | IC50 (Dlat IC50 category) | IC50 [1] | further results
1 | O=C(O)C(c1ccccc1)N1C(=O)C(=Cc2ccc(-c3ccc(Cc4ccccc4)cc3)o2)SC1=S (stereo not drawn) [Compound B32] | < 10 µM | – | –
2 | CC(C)C(C(=O)O)N1C(=O)C(=Cc2ccc(-c3cccc(C(F)(F)F)c3)o2)SC1=S (stereo not drawn) [Compound B105] | 11 to 40 µM | – | –
3 | O=C(O)CCN1C(=O)C(=Cc2ccc(-c3ccc(O)cc3)o2)SC1=S [Compound B26] | 41 to 80 µM | – | –
4 | CCCCc1ccc(-c2ccc(C=C3SC(=S)N(C4CCCC(C(=O)O)C4)C3=O)o2)cc1 (stereo not drawn) [Compound C77, 3-{5-[1-[5-(4-butyl-phenyl)-furan-2-yl]-methylidene]-4-oxo-2-thioxo-thiazolidin-3-yl}-cyclohexanecarboxylic acid] | < 10 µM | – | –
5 | O=C(O)c1cc(N2C(=O)C(=Cc3ccc(-c4ccccc4OC(F)(F)F)o3)SC2=S)ccc1Cl [Compound A69] | – | < 10 µM | –
6 | O=C(O)CN1C(=O)C(=Cc2ccc(-c3ccc(CSc4ccccc4)cc3)o2)SC1=S [Compound B71] | 11 to 40 µM | – | –
7 | COc1ccc(-c2ccc(C=C3SC(=S)N(C4CCCC(C(=O)O)C4)C3=O)o2)c(OC)c1 (stereo not drawn) [Compound C19, 3-{5-[1-[5-(2,4-dimethoxy-phenyl)-furan-2-yl]-methylidene]-4-oxo-2-thioxo-thiazolidin-3-yl}-cyclohexanecarboxylic acid] | < 10 µM | – | –
8 | CC(C)C(C(=O)O)N1C(=O)C(=Cc2ccc(-c3cccc(Cl)c3)o2)SC1=S (stereo not drawn) [Compound B102] | 11 to 40 µM | – | –
9 | COc1ccc(-c2ccc(C=C3SC(=S)N(c4cccc(C(=O)O)c4)C3=O)o2)cc1Cl [Compound A146] | – | < 10 µM | –
10 | COc1cc(F)ccc1-c1ccc(C=C2SC(=S)N(C3CCCC(C(=O)O)C3)C2=O)o1 (stereo not drawn) [Compound C25, 3-{5-[1-[5-(4-fluoro-2-methoxy-phenyl)-furan-2-yl]-methylidene]-4-oxo-2-thioxo-thiazolidin-3-yl}-cyclohexanecarboxylic acid] | < 10 µM | – | –
11 | CC(=O)Nc1ccc(-c2ccc(C=C3SC(=S)N(c4ccc(F)c(C(=O)O)c4)C3=O)o2)cc1 [Compound A262] | – | 11 to 40 µM | –
12 | CN(C)c1ccc(-c2ccc(C=C3SC(=S)N(Nc4ccccc4C(=O)O)C3=O)o2)cc1 [Compound D31, 2-{5-[5-(4-Dimethylamino-phenyl)-furan-2-ylmethylene]-4-oxo-2-thioxo-thiazolidin-3-ylamino}-benzoic acid] | 11 to 40 µM | – | –
13 | CC(=O)Nc1ccc(-c2ccc(C=C3SC(=S)N(c4cccc(C(=O)O)c4)C3=O)o2)cc1 [Compound A204] | – | < 10 µM | –
14 | Cc1ccc(-c2ccc(C=C3SC(=S)N(c4cccc(C(=O)O)c4)C3=O)o2)cc1 [Compound A147] | – | 11 to 40 µM | –
15 | O=C(O)c1ccc(F)c(N2C(=O)C(=Cc3ccc(-c4ccc(Cl)cc4)o3)SC2=S)c1 [Compound A104] | – | < 10 µM | –
16 | Cc1ccc(-c2ccc(C=C3SC(=S)N(C4CCCC(C(=O)O)C4)C3=O)cc2)cc1 (stereo not drawn) [Compound C72, 3-{5-[1-(4′-methyl-biphenyl-4-yl)-methylidene]-4-oxo-2-thioxo-thiazolidin-3-yl}-cyclohexanecarboxylic acid] | < 10 µM | – | –
17 | CSc1ccc(-c2ccc(C=C3SC(=S)N(C4CCCC(C(=O)OCCO)C4)C3=O)o2)cc1 (stereo not drawn) [Compound U3, 3-{5-[1-[5-(4-Methylsulfanyl-phenyl)-furan-2-yl]-methylidene]-4-oxo-2-thioxo-thiazolidin-3-yl}-cyclohexanecarboxylic acid 2-hydroxy-ethyl ester] | – | – | IC50 (Dlat IC50 category, Table 21, Prodrugs (Examples U1 to U10)): 41 to 80 µM
18 | O=C(O)c1cc(N2C(=O)C(=Cc3ccc(-c4c(Cl)cccc4Cl)o3)SC2=S)ccc1Cl [Compound A109] | – | < 10 µM | –
19 | O=C(O)c1ccc(N2C(=O)C(=Cc3ccc(-c4ccc(Cc5ccccc5)cc4)o3)SC2=S)cc1 [Compound A11] | – | 11 to 40 µM | –
20 | CCOc1ccc(-c2ccc(C=C3SC(=S)N(C4CCCC(C(=O)O)C4)C3=O)o2)cc1 (stereo not drawn) [Compound C51, 3-{5-[1-[5-(4-ethoxy-phenyl)-furan-2-yl]-methylidene]-4-oxo-2-thioxo-thiazolidin-3-yl}-cyclohexanecarboxylic acid] | < 10 µM | – | –
21 | O=C(O)C1CCCC(N2C(=O)C(=Cc3ccc(-c4ccccc4Cl)s3)SC2=S)C1 (stereo not drawn) [Compound C32, 3-{4-oxo-2-thioxo-5-[1-(5-(2-chloro-phenyl)-thiophen-2-yl)-methylidene]-thiazolidin-3-yl}-cyclohexanecarboxylic acid] | < 10 µM | – | –
22 | CC(=O)c1ccc(-c2ccc(C=C3SC(=S)N(c4cccc(C(=O)O)c4)C3=O)o2)cc1 [Compound A206] | – | < 10 µM | –
23 | COc1ccc(C(=O)O)cc1N1C(=O)C(=Cc2ccc(-c3ccc(CC(C)C)cc3)o2)SC1=S [Compound A91] | – | < 10 µM | –
24 | CS(=O)(=O)c1ccc(-c2ccc(C=C3SC(=S)N(c4cc(C(=O)O)ccc4F)C3=O)o2)cc1 [Compound A229] | – | 11 to 40 µM | –
25 | Cc1ccc(-c2ccc(C=C3SC(=S)N(C4CCC(C(=O)O)CC4)C3=O)cc2)cc1 (stereo not drawn) [Compound C73, 4-{5-[1-(4′-methyl-biphenyl-4-yl)-methylidene]-4-oxo-2-thioxo-thiazolidin-3-yl}-cyclohexanecarboxylic acid] | < 10 µM | – | –
26 | O=C(O)CN1C(=O)C(=Cc2ccc(-c3cccc(Cl)c3Cl)o2)SC1=S [Compound B85] | < 10 µM | – | –

Row | SMILES | IC50 (Dlat IC50 category) | IC50 [1] | further results
27 | CC(C)c1ccc(-c2ccc(C=C3SC(=S)N(C(Cc4ccc(O)c(O)c4)C(=O)O)C3=O)o2)cc1 (stereo not drawn) [Compound B68] | < 10 µM | – | –
28 | O=C(O)c1ccc(F)c(N2C(=O)C(=Cc3ccc(-c4ccc(F)cc4F)o3)SC2=S)c1 [Compound A154] | – | < 10 µM | –
29 | O=C(O)C(Cc1ccccc1)N1C(=O)C(=Cc2ccc(-c3ccccc3Cl)o2)SC1=S (stereo not drawn) [Compound B41] | < 10 µM | – | –
30 | O=C(O)C(Cc1ccccc1)N1C(=O)C(=Cc2ccc(-c3cc(Cl)ccc3Cl)o2)SC1=S (stereo not drawn) [Compound B47] | < 10 µM | – | –
31 | O=C(O)c1cccc(CCN2C(=O)C(=Cc3ccc(-c4cc5ccccc5s4)o3)SC2=S)c1 [Compound H1] | – | – | IC50 (read-out: Dlat IC50 category): 11 to 40 µM
32 | NS(=O)(=O)c1ccc(N2C(=O)C(=Cc3ccc(-c4ccc(Cl)cc4)o3)SC2=S)cc1 [Compound A17] | – | 11 to 40 µM | –
33 | CCCCc1ccc(-c2ccc(C=C3SC(=S)N(c4cc(C(=O)O)cc(C(F)(F)F)c4)C3=O)o2)cc1 [Compound A266] | – | < 10 µM | –
34 | CC(C)(C)c1ccc(-c2ccc(C=C3SC(=S)N(Nc4ccccc4C(=O)O)C3=O)o2)cc1 (single isomer, unassigned) [Compound D2, 2-{5-[1-[5-(4-tert-butyl-phenyl)-furan-2-yl]-meth-(E)-ylidene]-4-oxo-2-thioxo-thiazolidin-3-ylamino}-benzoic acid] | < 10 µM | – | –
35 | O=C(O)C(c1ccccc1)N1C(=O)C(=Cc2ncc(-c3cccc(Cl)c3)o2)SC1=S (stereo not drawn) [Compound B35] | 11 to 40 µM | – | –
36 | CC(=O)Nc1ccc(-c2ccc(C=C3SC(=S)N(c4cc(C(=O)O)ccc4F)C3=O)o2)cc1 [Compound A205] | – | < 10 µM | –
37 | Cc1cccc(C)c1-c1ccc(C=C2SC(=S)N(c3cccc(C(=O)O)c3)C2=O)o1 [Compound A198] | – | < 10 µM | –
38 | CC(C)Oc1ccc(-c2ccc(C=C3SC(=S)N(C4CCC(C(=O)O)CC4)C3=O)o2)cc1 (stereo not drawn) [Compound C67, 4-{5-[5-(4-Isopropoxy-phenyl)-furan-2-ylmethylene]-4-oxo-2-thioxo-thiazolidin-3-yl}-cyclohexanecarboxylic acid] | < 10 µM | – | –
39 | Cc1cc(N(C)C)ccc1-c1ccc(C=C2SC(=S)N(CCCC(=O)O)C2=O)o1 [Compound B92] | 11 to 40 µM | – | –
40 | O=C(O)c1ccc(Cl)c(N2C(=O)C(=Cc3ccc(-c4cccc([N+](=O)[O-])c4)o3)SC2=S)c1 [Compound A128] | – | < 10 µM | –
41 | O=C(O)[C@H](c1ccccc1)N1C(=O)C(=Cc2ccc(-c3ccc(Cl)cc3)o2)SC1=S [Compound B37] | < 10 µM | – | –
42 | CC(C)(C)c1ccc(-c2ccc(C=C3SC(=S)N(C4CCCC(C(=O)O)C4)C3=O)o2)cc1 (stereo not drawn) [Compound C3, 3-{5-[1-[5-(4-tert-butyl-phenyl)-furan-2-yl]-methylidene]-4-oxo-2-thioxo-thiazolidin-3-yl}-cyclohexanecarboxylic acid] | < 10 µM | – | –
43 | Cc1ccccc1-c1ccc(C=C2SC(=S)N(Nc3ccccc3C(=O)O)C2=O)s1 [Compound D34, 2-{4-oxo-2-thioxo-5-[1-(5-o-tolyl-thiophen-2-yl)-methylidene]-thiazolidin-3-ylamino}-benzoic acid] | < 10 µM | – | –
44 | COc1ccc(-c2ccc(C=C3SC(=S)N(C4CCCC(C(=O)O)C4)C3=O)o2)cc1 (stereo not drawn) [Compound C15, 3-{5-[1-[5-(4-methoxy-phenyl)-furan-2-yl]-methylidene]-4-oxo-2-thioxo-thiazolidin-3-yl}-cyclohexanecarboxylic acid] | < 10 µM | – | –
45 | CCCc1ccc(-c2ccc(C=C3SC(=S)N(c4cccc(C(=O)O)c4)C3=O)o2)cc1 [Compound A269] | – | < 10 µM | –
46 | NS(=O)(=O)c1ccc(N2C(=O)C(=Cc3ccc(-c4ccccc4Cl)o3)SC2=S)cc1 [Compound A6] | – | 11 to 40 µM | –
47 | O=C(O)c1ccc(N2C(=O)C(=Cc3ccc(-c4ccccc4Cl)o3)SC2=S)cc1 [Compound A16] | – | > 41 µM | –
48 | Cc1ccccc1-c1ccc(C=C2SC(=S)N(c3cc(C(=O)O)cc(C(=O)O)c3)C2=O)o1 [Compound A235] | – | < 10 µM | –
49 | Cc1c(C(=O)O)cccc1N1C(=O)C(=Cc2ccc(-c3c(Cl)cccc3Cl)o2)SC1=S [Compound A112] | – | < 10 µM | –
50 | O=C(O)CCN1C(=O)C(=Cc2ccc(-c3ccccc3Cl)o2)SC1=S [Compound B5] | 11 to 40 µM | – | –
51 | Cc1ccccc1-c1ccc(C=C2SC(=S)N(c3cccc(C(=O)O)c3)C2=O)s1 [Compound A187] | – | 11 to 40 µM | –
